This note sets out measurements from patent publication US9884063B2, “Amido-substituted azole compounds” (Bayer Pharma Aktiengesellschaft, priority 2014, dated 2018).

pIC50: −log10 of the molar value.

By pIC50 is commonly meant −log10 of the IC50, conventionally taken in molar units.

The target of experiment [1] is T1, TNKS2 (Homo sapiens, UniProt Q9H2K2).
T1 sequence (Q9H2K2 1-1166): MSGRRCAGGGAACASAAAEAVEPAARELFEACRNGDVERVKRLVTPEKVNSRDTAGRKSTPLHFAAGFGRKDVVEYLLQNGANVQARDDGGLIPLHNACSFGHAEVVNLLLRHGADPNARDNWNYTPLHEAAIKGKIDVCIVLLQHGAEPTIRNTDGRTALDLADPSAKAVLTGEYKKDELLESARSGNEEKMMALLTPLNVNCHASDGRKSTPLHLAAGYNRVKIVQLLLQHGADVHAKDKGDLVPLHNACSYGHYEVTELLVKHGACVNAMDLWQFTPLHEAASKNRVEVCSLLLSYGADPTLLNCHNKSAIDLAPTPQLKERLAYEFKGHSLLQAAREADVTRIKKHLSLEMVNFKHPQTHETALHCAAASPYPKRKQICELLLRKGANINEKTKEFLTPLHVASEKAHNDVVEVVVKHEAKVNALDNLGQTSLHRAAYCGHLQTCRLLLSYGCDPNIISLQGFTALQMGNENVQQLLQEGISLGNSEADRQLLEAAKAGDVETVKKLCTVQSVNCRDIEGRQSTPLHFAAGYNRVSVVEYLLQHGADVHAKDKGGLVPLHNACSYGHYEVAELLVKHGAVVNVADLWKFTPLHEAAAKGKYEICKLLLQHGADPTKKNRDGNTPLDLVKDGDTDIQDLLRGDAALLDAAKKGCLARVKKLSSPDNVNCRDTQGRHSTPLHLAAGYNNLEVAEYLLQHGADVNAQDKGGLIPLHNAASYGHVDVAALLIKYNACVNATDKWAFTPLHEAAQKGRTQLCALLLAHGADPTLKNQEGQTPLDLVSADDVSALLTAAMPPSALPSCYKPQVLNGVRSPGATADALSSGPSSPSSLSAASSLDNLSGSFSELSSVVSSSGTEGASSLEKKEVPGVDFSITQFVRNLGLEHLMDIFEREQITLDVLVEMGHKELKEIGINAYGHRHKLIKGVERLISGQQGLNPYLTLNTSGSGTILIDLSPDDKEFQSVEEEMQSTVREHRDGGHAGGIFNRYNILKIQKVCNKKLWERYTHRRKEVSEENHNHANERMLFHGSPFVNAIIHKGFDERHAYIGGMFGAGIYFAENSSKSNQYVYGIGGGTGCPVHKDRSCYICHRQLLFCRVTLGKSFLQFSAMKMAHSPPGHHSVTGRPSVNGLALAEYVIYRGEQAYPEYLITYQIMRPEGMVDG
Briefly: Modified TNKS2 Assay 2 (auto-parsylation, [3H]-NAD+ SPA). The experiment is classed as biochemical. To be noted: 6 nM TNKS2, 96 well.

Experiment [2] deals with HEK293 FOP control reporter cell line. Briefly: HEK293 FOP Assay (FOP control vector luciferase reporter). It is filed as cell-based. The following applies: Homo sapiens. The method, boiled down: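 Compound series 50 μM to 15 nM, 3.16-fold steps, were diluted in CAFTY buffer (pH 7.4, 2 mM Ca2+, 0.01% BSA) and tested alongside the TOP reporter line. Human Wnt-3a was added at 2500–5 ng/ml in two-fold steps. The control HEK293 line stably holds an FOP vector whose TCF elements are randomized and non-functional.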
A general note: In a reporter assay the amount or activity of a reporter protein is the signal.

Setting [3] is: HEK293 FOP control reporter cell line, 16 hours incubation, compound dilution series 50 μM to 15 nM.
[4] abbreviates: HEK293 FOP control reporter cells, 16 hours, luciferase, dilution series from 50 μM.

For the compound `CNC(=O)c1nc[nH]c1C(=O)Nc1ccc(NC(=O)c2cc(Cl)ccc2Cl)cc1` [Example 309, N^5-{4-[(2,5-dichlorobenzoyl)amino]phenyl}-N^4-methyl-1H-imidazole-4,5-dicarboxamide], the pIC50 is 6.47 in experiment [1] and 4.42 in experiment [2] (setting [3]).

With `CCNC(=O)c1nc[nH]c1C(=O)Nc1ccc(NC(=O)c2cnccc2Cl)cc1` [Example 263, N^5-(4-{[(4-chloropyridin-3-yl)carbonyl]amino}phenyl)-N^4-ethyl-1H-imidazole-4,5-dicarboxamide], the negative logarithm of the IC50 (pIC50) was 6.30 in experiment [1] and 4.56 in experiment [2] (setting [3]).

As to `CNC(=O)c1nc[nH]c1C(=O)Nc1ccc(NC(=O)c2c(Cl)cccc2C(F)(F)F)cc1` [Example 36, N^5-(4-{[2-chloro-6-(trifluoromethyl)benzoyl]amino}phenyl)-N^4-methyl-1H-imidazole-4,5-dicarboxamide], the pIC50 in experiment [1] was < 5.00; in experiment [2] (setting [4]), ≤ 4.30.

For the compound `CN1CC2(C1)CN(C(=O)c1nc[nH]c1C(=O)Nc1ccc(NC(=O)c3ccc(F)cc3Cl)cc1)C2` [Example 46, N-{4-[(2-chloro-4-fluorobenzoyl)amino]phenyl}-4-[(6-methyl-2,6-diazaspiro[3.3]hept-2-yl)carbonyl]-1H-imidazole-5-carboxamide], the values for the pIC50 in experiment [1] and in experiment [2] (setting [3]) were 5.96 and 4.92, respectively.

In the case of `CCN1CCC[C@@H]1CNC(=O)c1nc[nH]c1C(=O)Nc1ccc(NC(=O)c2ccc(F)cc2Cl)cc1` [Example 413, N^5-{4-[(2-chloro-4-fluorobenzoyl)amino]phenyl}-N^4-{[(2R)-1-ethylpyrrolidin-2-yl]methyl}-1H-imidazole-4,5-dicarboxamide], the pIC50 in experiment [1] was 7.05; in experiment [2] (setting [3]), 4.59.

Consider `CN(C)CCNC(=O)c1nc[nH]c1C(=O)Nc1ccc(NC(=O)c2ccc(F)cc2Cl)c(F)c1` [Example 73, N^5-{4-[(2-chloro-4-fluorobenzoyl)amino]-3-fluorophenyl}-N^4-[2-(dimethylamino)ethyl]-1H-imidazole-4,5-dicarboxamide], for which the figures for the negative-log IC50 (pIC50) in experiment [1] and in experiment [2] (setting [3]) were 7.52 and 4.48, respectively.

With `CCc1ccccc1C(=O)Nc1ccc(NC(=O)c2[nH]cnc2C(=O)NC)cc1` [Example 39, N^5-{4-[(2-ethylbenzoyl)amino]phenyl}-N^4-methyl-1H-imidazole-4,5-dicarboxamide], the pIC50 in experiment [1] is 5.66; in experiment [2] (setting [3]), 5.26; in experiment [2] (setting [4]), 5.26.

Regarding `CCNC(=O)c1nc[nH]c1C(=O)Nc1ccc(NC(=O)c2cc(OC)ccc2Cl)cc1` [Example 264, N^5-{4-[(2-chloro-5-methoxybenzoyl)amino]phenyl}-N^4-ethyl-1H-imidazole-4,5-dicarboxamide], the pIC50 in experiment [1] is 6.32; in experiment [2] (setting [3]), 4.80.

Regarding `C[C@@H]1CCCCN1CCNC(=O)c1[nH]cnc1C(=O)Nc1ccc(NC(=O)c2ccc(F)cc2Cl)cc1` [Example 267, N^4-{4-[(2-chloro-4-fluorobenzoyl)amino]phenyl}-N^5-{2-[(2R)-2-methylpiperidin-1-yl]ethyl}-1H-imidazole-4,5-dicarboxamide], the negative-log IC50 (pIC50) in experiment [1] is 8.52; in experiment [2] (setting [3]) it was 4.70.

Take `CNC(=O)c1nc[nH]c1C(=O)Nc1ccc(NC(=O)c2ccc(F)cc2Br)cc1` [Example 56, N^5-{4-[(2-bromo-4-fluorobenzoyl)amino]phenyl}-N^4-methyl-1H-imidazole-4,5-dicarboxamide]: the pIC50 is 6.24 in experiment [1] and 5.00 in experiment [2] (setting [3]).

Turning to `CC1(C)CC(NC(=O)c2nc[nH]c2C(=O)Nc2ccc(NC(=O)c3ccc(F)cc3Cl)cc2)CCO1` (stereo not shown) [Example 391, N^5-{4-[(2-chloro-4-fluorobenzoyl)amino]phenyl}-N^4-(2,2-dimethyltetrahydro-2H-pyran-4-yl)-1H-imidazole-4,5-dicarboxamide], the results for the negative-log IC50 (pIC50) in experiment [1] and in experiment [2] (setting [3]) were 6.35 and 4.57, respectively.

In the case of `O=C(Nc1ccc(NC(=O)c2[nH]cnc2C(=O)NCCN2CCCCC2)cc1)c1ccc(F)cc1Cl` [Example 32, N^4-{4-[(2-chloro-4-fluorobenzoyl)amino]phenyl}-N^5-[2-(piperidin-1-yl)ethyl]-1H-imidazole-4,5-dicarboxamide], the pIC50 in experiment [1] was 9.52; in experiment [2] (setting [3]) it was 4.52; in experiment [2] (setting [4]), 4.38.

For the compound `Cc1nc(C(=O)Nc2ccc(NC(=O)c3ccc(F)cc3Cl)cc2)c(C(=O)NCCN2CCCCC2)[nH]1` [Example 67, N^4-{4-[(2-chloro-4-fluorobenzoyl)amino]phenyl}-2-methyl-N^5-[2-(piperidin-1-yl)ethyl]-1H-imidazole-4,5-dicarboxamide], the pIC50 was 7.52 in experiment [1] and 4.89 in experiment [2] (setting [3]).

Turning to `Cc1nc(C(=O)Nc2ccc(NC(=O)c3ccc(F)cc3Cl)cc2)c(C(=O)NCCN(C)C)[nH]1` [Example 66, N^4-{4-[(2-chloro-4-fluorobenzoyl)amino]phenyl}-N^5-[2-(dimethylamino)ethyl]-2-methyl-1H-imidazole-4,5-dicarboxamide], the results for the pIC50 in experiment [1] and in experiment [2] (setting [3]) were 7.40 and 5.21, respectively.

In the case of `CS(=O)(=O)c1ccc(C(=O)Nc2ccc(NC(=O)c3[nH]cnc3C(=O)NCCN3CCCCC3)cc2)c(Cl)c1` [Example 53, N^5-(4-{[2-chloro-4-(methylsulfonyl)benzoyl]amino}phenyl)-N^4-[2-(piperidin-1-yl)ethyl]-1H-imidazole-4,5-dicarboxamide], the pIC50 in experiment [1] is 8.00.

Regarding `CCNC(=O)c1nc[nH]c1C(=O)Nc1ccc(NC(=O)c2ncccc2Cl)cc1` [Example 261, N^5-(4-{[(3-chloropyridin-2-yl)carbonyl]amino}phenyl)-N^4-ethyl-1H-imidazole-4,5-dicarboxamide], in experiment [1], the pIC50 is 6.68.

Turning to `CNC(=O)c1nc[nH]c1C(=O)Nc1ccc(NC(=O)c2cccc(F)c2OC)cc1` [Example 367, N^5-{4-[(3-fluoro-2-methoxybenzoyl)amino]phenyl}-N^4-methyl-1H-imidazole-4,5-dicarboxamide], the pIC50 in experiment [1] is < 5.00.

Consider `CCc1nc(C(=O)Nc2ccc(NC(=O)c3ccc(F)cc3Cl)cc2)c(C(=O)NC)[nH]1` [Example 68, N^4-{4-[(2-chloro-4-fluorobenzoyl)amino]phenyl}-2-ethyl-N^5-methyl-1H-imidazole-4,5-dicarboxamide], for which the pIC50 in experiment [1] is < 5.00.

Regarding `O=C(Nc1ccc(NC(=O)c2nc[nH]c2C(=O)NCCN2CCCCC2)cc1OC(F)(F)F)c1ccc(F)cc1Cl` [Example 293, N^4-{4-[(2-chloro-4-fluorobenzoyl)amino]-3-(trifluoromethoxy)phenyl}-N^5-[2-(piperidin-1-yl)ethyl]-1H-imidazole-4,5-dicarboxamide], the pIC50 in experiment [1] was 6.96.

In experiment [1], `CNC(=O)c1nc[nH]c1C(=O)Nc1ccc(NC(=O)c2ccc(S(C)(=O)=O)cc2Cl)cc1` [Example 55, N^5-(4-{[2-chloro-4-(methylsulfonyl)benzoyl]amino}phenyl)-N^4-methyl-1H-imidazole-4,5-dicarboxamide] showed a pIC50 of 7.15.

The compound `CCN(CC)CCCCNC(=O)c1nc[nH]c1C(=O)Nc1ccc(NC(=O)c2ccc(F)cc2Cl)cc1` [Example 393, N^5-{4-[(2-chloro-4-fluorobenzoyl)amino]phenyl}-N^4-[4-(diethylamino)butyl]-1H-imidazole-4,5-dicarboxamide] had a pIC50 in experiment [1] of 6.12.

Take `CNC(=O)c1nc[nH]c1C(=O)Nc1ccc(NC(=O)c2ccon2)cc1` [Example 376, N^4-methyl-N^5-{4-[(1,2-oxazol-3-ylcarbonyl)amino]phenyl}-1H-imidazole-4,5-dicarboxamide]: the pIC50 in experiment [1] was < 5.00.

In experiment [1], `CNC(=O)c1nc[nH]c1C(=O)Nc1ccc(NC(=O)c2c(F)cc(F)cc2F)cc1` [Example 342, N^4-methyl-N^5-{4-[(2,4,6-trifluorobenzoyl)amino]phenyl}-1H-imidazole-4,5-dicarboxamide] gave a pIC50 of 6.27.

Take `CNC(=O)c1nc[nH]c1C(=O)Nc1ccc(NC(=O)c2cc(C#N)ccc2F)cc1` [Example 349, N^5-{4-[(5-cyano-2-fluorobenzoyl)amino]phenyl}-N^4-methyl-1H-imidazole-4,5-dicarboxamide]: in experiment [1], the pIC50 was 5.66.
